From US20260055108A1, “TRIAZINE COMPOUNDS AND USES THEREOF” (HUTCHMED LIMITED, priority 2022, published 2026) come the findings set out here.

Assay [1] deals with Recombinant human Menin protein (2-610) / MLL polypeptide binding (Homo sapiens (Human), UniProt O00255). The assay is described as follows: Menin and MLL protein binding at a molecular level (fluorescence polarization method). The conditions noted are these: inhibition of Menin / MLL polypeptide binding. The source says: Example 3: Determination of the Activity of the Compounds of the Present Invention on Menin and MLL Protein Binding at a Molecular Level (Fluorescence Polarization Method)
1. Reagents, Materials and Instruments:
• Recombinant human Menin protein (2-610): ChemPartner, CP2021020801; • MLL polypeptide (6-FAM-Ahx-SG-40): GL Biochem, 865700; • Trizma® hydrochloride buffer solution (Tris): Sigma, T2194-1 L; • NaCl: Invitrogen, AM9760G; • TCEP: Sigma, 646547; • DMSO: Sigma, D4540; • 384-well plate: Corning, 4514; • Envision: PerkinElmer.
2. Preparation of Reaction Solutions
• 1) Buffer solution: 20 mL of Tris and 4 mL of NaCl were added respectively to 376 mL of ddH2O, with pH adjusted to 7.5, and TCEP was added before testing with a dilution ratio of 1:500. • 2) 5× test compounds: the test compound was subjected to gradient dilution with the buffer solution to 5-fold the reaction concentration, so that the final concentrations of the compound were 1.000, 0.333, 0.111, 0.037, 0.012, 0.004, 0.001 and 0.0005 μM, respectively. • 3) 2.5× Menin protein reaction solution: the Menin protein was diluted to 5 nM with the buffer solution. • 4) 2.5×MLL polypeptide reaction solution: the MLL polypeptide was diluted to 5 nM with the buffer solution.
1) Binding Reaction (20 μL System)
4 μL of 5× test compound was added to each reaction well of the 384-well plate, and the corresponding volume of 10% DMSO was added to the control wells. Except the control wells, 8 μL of Menin protein reaction solution was added to each well. The reaction solution was incubated at room temperature for 30 minutes, and then 8 μL of MLL polypeptide reaction solution was added to each well. The final concentrations of DMSO in the test compound wells and control wells were all 2%. The 384-well plate was sealed and incubated at room temperature for 30 minutes in the dark.
Three control groups were set up: • a blank control group only containing a buffer solution; • a negative control group only containing MLL polypeptide reaction solution; and • a positive control group containing Menin protein reaction solution and MLL polypeptide reaction solution.
The vertical polarization S value and the horizontal polarization P value (excitation wavelength was 480 nm, and emission wavelength was 535 nm) were measured with Envision.
Corrected S is the S value of the negative control group—the S value of the blank control group
Corrected P is the P value of the negative control group—the P value of the blank control group
(§1) • calculated by using software XL-Fit™ (version 5.3) supplied by ID Business Solutions (Guildford, UK), which is an additional software to Microsoft Excel.
(In fluorescence polarisation assays a small probe gives low polarisation when free and higher when bound to something large.)

The subject of assay [2] is MV-4-11 cells (human acute myelogenous leukemia cell line carrying MLL-AF4 mutation). As to the kind of experiment: Cell proliferation assay, MV-4-11 (CellTiter-Glo). Type of assay: cell-based. The conditions noted are these: Homo sapiens, MV4-11, 72 h. Here is the method:
Example 4 Cell Proliferation Assay
MV-4-11 (ATCC, CRL-9591), a human acute myelogenous leukemia cell line carrying MLL-AF4 mutation. Cells were cultured in an IMDM medium containing 10% heat-inactivated fetal bovine serum (HIFBS) and supplemented with 50 μM β-mercaptoethanol.
2. Reagents, Materials and Instruments:
• IMDM culture solution: GIBCO, 12440-053; • HIFBS: GIBCO, 10100-147; • β-mercaptoethanol: Sigma, M3148; • CellTiter-Glo® 2.0 assay kit (CTG): Promega, G9243; • DMSO: Sigma, D4540; • 96-well cell culture plate: Corning, 3903; • Envision: PerkinElmer.
MV-4-11 cells were resuspended in a medium, added to a 96-well plate at a density of 3000 cells/well with a volume of 100 μL/well, and cultured in a cell incubator at 5% CO2 and 37° C. for 4 hours. The test compound subjected to gradient dilution with the medium was added to a cell culture plate, and the final concentrations of the compound were 1.100, 0.367, 0.122, 0.041, 0.014, 0.005, 0.002 and 0.001 μM, respectively. The corresponding volume of DMSO diluent was added to a blank control well, and the final concentrations of DMSO in the experimental group and control group were both 0.1%. The cell plate was placed in a cell incubator at 5% CO2 and 37° C. and cultured for 3 days.
On day 0 and day 3 of the treatment, 50 μL/well CTG reagent was added to the cell plate and shaken at room temperature in the dark for 10 min, and then the chemiluminescence value of each well was measured with Envision.
[formula] • wherein: • luminescence valuetest sample: the chemiluminescence value of a cell well treated with the test compound for 3 days. • luminescence valueday 0: the chemiluminescence value of a cell well at day 0. • luminescence valuecell well: the chemiluminescence value of a cell well not treated with the compound for 3 days.
as §1
For orientation: In ATP-based viability assays light output follows the ATP content of the culture.

Where [3] appears, read: MV-4-11 cells, 3 days treatment, CellTiter-Glo, read-out: GI50.

Where two headings read alike, the source gives them in different places.

Recombinant human Menin protein (2-610) / MLL polypeptide binding, sequence (O00255 2-610): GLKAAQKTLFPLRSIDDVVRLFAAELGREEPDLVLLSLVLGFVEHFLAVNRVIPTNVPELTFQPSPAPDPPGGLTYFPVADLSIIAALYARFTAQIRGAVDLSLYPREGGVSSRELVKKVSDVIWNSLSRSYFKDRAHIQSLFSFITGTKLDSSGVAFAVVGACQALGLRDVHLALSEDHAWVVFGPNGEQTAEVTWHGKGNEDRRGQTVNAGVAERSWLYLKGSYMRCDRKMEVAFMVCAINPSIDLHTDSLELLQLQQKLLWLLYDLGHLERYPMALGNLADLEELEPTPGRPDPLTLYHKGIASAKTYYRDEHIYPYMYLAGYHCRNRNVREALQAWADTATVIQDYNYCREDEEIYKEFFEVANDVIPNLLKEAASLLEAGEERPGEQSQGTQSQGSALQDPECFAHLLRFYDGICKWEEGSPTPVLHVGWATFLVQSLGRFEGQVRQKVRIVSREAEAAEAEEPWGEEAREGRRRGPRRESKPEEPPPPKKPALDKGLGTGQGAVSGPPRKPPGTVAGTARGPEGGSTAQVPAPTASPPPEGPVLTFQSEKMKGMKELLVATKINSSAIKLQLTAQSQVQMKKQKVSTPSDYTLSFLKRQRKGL

As to `CCN(C(=O)c1cc(F)ccc1Oc1nncnc1N1CC2(CCN(CC3CCN(C(=O)C4CC4)CC3)CC2)C1)C(C)C` [Compound 1, 2-((5-(7-((1-(cyclopropanecarbonyl)piperidin-4-yl)methyl)-2,7-diazaspiro[3.5]nonan-2-yl)-1,2,4-triazin-6-yl)oxy)-N-ethyl-5-fluoro-N-isopropylbenzamide], the IC50 in assay [1] was 13.6 nM. For the same compound, the GI50 in assay [2] (setting [3]) stood at 43 nM.
Turning to `CCN(C(=O)c1cc(F)ccc1Oc1nncnc1N1CC2(CCN(CC3CCN(C(=O)C4(C(F)(F)F)CC4)CC3)CC2)C1)C(C)C` [Compound 2], the IC50 in assay [1] was 30 nM. Moreover, in assay [2] (setting [3]), the GI50 stood at 39 nM.
For the compound `CCN(C(=O)c1cc(F)ccc1Oc1nncnc1N1CC2(CCN(CC3CCN(C(=O)C4CCC4)CC3)CC2)C1)C(C)C` [Compound 3], the IC50 in assay [1] came to 2.4 nM. Moreover, in assay [2] (setting [3]), the GI50 stood at 31 nM.
Turning to `CCN(C(=O)c1cc(F)ccc1Oc1nncnc1N1CC2(CCN(CC3CCN(C(=O)C4CC(C)(C)C4)CC3)CC2)C1)C(C)C` [Compound 4], in assay [1], the IC50 is 3.2 nM. Besides, the concentration for 50% growth inhibition (GI50) in assay [2] (setting [3]) amounted to 8 nM.
`CCN(C(=O)c1cc(F)ccc1Oc1nncnc1N1CC2(CCN(CC3CCN(C(=O)C4COC4)CC3)CC2)C1)C(C)C` [Compound 5]: in assay [1], the IC50 is 21.3 nM. In addition, the GI50 in assay [2] (setting [3]) was 58 nM.
With `CCN(C(=O)c1cc(F)ccc1Oc1nncnc1N1CC2(CCN(CC3CCN(C(=O)C4CC(F)(F)C4)CC3)CC2)C1)C(C)C` [Compound 6], in assay [1], the IC50 worked out at 6.7 nM. The 50% growth inhibitory concentration (GI50) in assay [2] (setting [3]) was 13 nM.
As to `CCN(C(=O)c1cc(F)ccc1Oc1nncnc1N1CC2(CCN(CC3CCN(C(=O)CNC4CC4)CC3)CC2)C1)C(C)C` [Compound 7], the IC50 in assay [1] was 50.2 nM. For the same compound, in assay [2] (setting [3]), the concentration for 50% growth inhibition (GI50) was 80 nM.
For the compound `CCN(C(=O)c1cc(F)ccc1Oc1nncnc1N1CC2(CCN(CC3CCN(C(=O)C4(OC)CC4)CC3)CC2)C1)C(C)C` [Compound 8], the IC50 in assay [1] turned out to be 34.6 nM. For the same compound, the GI50 in assay [2] (setting [3]) came to 86 nM.
For the compound `CCN(C(=O)c1cc(F)ccc1Oc1nncnc1N1CC2(CCN(CC3CCN(C(=O)COC)CC3)CC2)C1)C(C)C` [Compound 9], in assay [1], the IC50 was 37.6 nM. The GI50 in assay [2] (setting [3]) came to 99 nM.
As for `CCN(C(=O)c1cc(F)ccc1Oc1nncnc1N1CC2(CCN(CC3CCN(C(=O)C(C)O)CC3)CC2)C1)C(C)C` (stereo not shown) [Compound 10], in assay [1], the IC50 came out at 41.7 nM. Also, in assay [2] (setting [3]), the GI50 came to 187 nM.
As for `CCN(C(=O)c1cc(F)ccc1Oc1nncnc1N1CC2(CCN(CC3CCN(C(=O)C4(O)CC4)CC3)CC2)C1)C(C)C` [Compound 11], the IC50 in assay [1] amounted to 5.1 nM. In addition, the concentration for 50% growth inhibition (GI50) in assay [2] (setting [3]) amounted to 20 nM.
For `CCN(C(=O)c1cc(F)ccc1Oc1nncnc1N1CC2(CCN(CC3CCN(C(=O)C4(C#N)CC4)CC3)CC2)C1)C(C)C` [Compound 12], in assay [1], the IC50 was 19.8 nM. In assay [2] (setting [3]), the 50% growth inhibitory concentration (GI50) was found to be 36 nM.
Consider `CCN(C(=O)c1cc(F)ccc1Oc1nncnc1N1CC2(CCN(CC3CCN(C(=O)CC#N)CC3)CC2)C1)C(C)C` [Compound 13], for which the IC50 in assay [1] amounted to 14.5 nM. In assay [2] (setting [3]), the GI50 turned out to be 20 nM.
For `CCN(C(=O)c1cc(F)ccc1Oc1nncnc1N1CC2(CCN(CC3CCN(C(=O)c4ccccc4F)CC3)CC2)C1)C(C)C` [Compound 14] the same measures were 29.5 nM and 27 nM.
For `CCN(C(=O)c1cc(F)ccc1Oc1nncnc1N1CC2(CCN(CC3CCN(C(=O)c4ccccn4)CC3)CC2)C1)C(C)C` [Compound 15] the same measures were 41.8 nM and 44 nM.
In the same order, the values of `CCN(C(=O)c1cc(F)ccc1Oc1nncnc1N1CC2(CCN(CC3CCN(C(=O)c4cnn(C)c4)CC3)CC2)C1)C(C)C` [Compound 16] are 75 nM and 113 nM.
Regarding `CCN(C(=O)c1cc(F)ccc1Oc1nncnc1N1CC2(CCN(Cc3ccc(NC(=O)CC#N)cc3C)CC2)C1)C(C)C` [Compound 17], the IC50 in assay [1] was 48.7 nM. For the same compound, in assay [2] (setting [3]), the concentration for 50% growth inhibition (GI50) stood at 50 nM.
Regarding `C=CC(=O)N1CC(C(=O)N2CCC(CN3CCC4(CC3)CN(c3ncnnc3Oc3ccc(F)cc3C(=O)N(CC)C(C)C)C4)CC2)C1` [Compound 18, 2-((5-(7-((1-(1-acryloylazetidine-3-carbonyl)piperidin-4-yl)methyl)-2,7-diazaspiro[3.5]nonan-2-yl)-1,2,4-triazin-6-yl)oxy)-N-ethyl-5-fluoro-N-isopropylbenzamide], the IC50 in assay [1] was 14.6 nM. The concentration for 50% growth inhibition (GI50) in assay [2] was found to be 12 nM.
For `CCN(C(=O)c1cc(F)ccc1Oc1nncnc1N1CC2(CCN(CC3CCN(C(=O)C4(C(=O)N(C)C)CC4)CC3)CC2)C1)C(C)C` [Compound 19, 2-((5-(7-((1-(1-(dimethylcarbamoyl)cyclopropane-1-carbonyl)piperidin-4-yl)methyl)-2,7-diazaspiro[3.5]nonan-2-yl)-1,2,4-triazin-6-yl)oxy)-N-ethyl-5-fluoro-N-isopropylbenzamide], halving of growth in assay [2] (GI50) required 667 nM.
Take `C=CC(=O)N1CCC(CN2CCC3(CC2)CN(c2ncnnc2Oc2ccc(F)cc2C(=O)N(CC)C(C)C)C3)CC1` [Compound 20, 2-((5-(7-((1-acryloylpiperidin-4-yl)methyl)-2,7-diazaspiro[3.5]nonan-2-yl)-1,2,4-triazin-6-yl)oxy)-N-ethyl-5-fluoro-N-isopropylbenzamide]: the IC50 in assay [1] was found to be 98.7 nM. In addition, the GI50 in assay [2] (setting [3]) is 58 nM.
For the compound `CCN(C(=O)c1cc(F)ccc1Oc1nncnc1N1CC2(CCN(CC3CCN(C(=O)C(F)(F)F)CC3)CC2)C1)C(C)C` [Compound 21], the IC50 in assay [1] turned out to be 97.9 nM. Moreover, in assay [2] (setting [3]), the GI50 is 116 nM.
Consider `CCN(C(=O)c1cc(F)ccc1Oc1nncnc1N1CC2(CCN(CC3CCN(S(C)(=O)=O)CC3)CC2)C1)C(C)C` [Compound 22], for which the IC50 in assay [1] is 112 nM. Besides, in assay [2] (setting [3]), the GI50 came out at 87 nM.
Regarding `CCN(C(=O)c1cc(F)ccc1Oc1nncnc1N1CC2(CCN(Cc3ccc(NS(C)(=O)=O)cc3C)CC2)C1)C(C)C` [Compound 23], in assay [1], the IC50 is 23.2 nM. Also, the GI50 in assay [2] (setting [3]) was found to be 56 nM.
In the case of `CCN(C(=O)c1cc(F)ccc1Oc1nncnc1N1CC2(CCN(CC3CCN(C(=O)N(C)C)CC3)CC2)C1)C(C)C` [Compound 24], the IC50 in assay [1] turned out to be 23 nM. Besides, the 50% growth inhibitory concentration (GI50) in assay [2] (setting [3]) was determined as 54 nM.
For `CCNC(=O)N1CCC(CN2CCC3(CC2)CN(c2ncnnc2Oc2ccc(F)cc2C(=O)N(CC)C(C)C)C3)CC1` [Compound 28], the concentration for 50% growth inhibition (GI50) in assay [2] (setting [3]) was 9 nM.
Turning to `CCN(C(=O)c1cc(F)ccc1Oc1nncnc1N1CC2(CCN(Cc3ccc4nccn4c3)CC2)C1)C(C)C` [Compound 63], in assay [1], the IC50 is over 1000 nM.
As to `CCN(C(=O)c1cc(F)ccc1Oc1nncnc1N1CC2(CCN(Cc3ccc4[nH]c(C(=O)NC)cc4c3)CC2)C1)C(C)C` [Compound 65], in assay [1], the IC50 worked out at 83.9 nM.
Turning to `CCN(C(=O)c1cc(F)ccc1Oc1nncnc1N1CC2(CCN(CC3CCN(C4=NN5CCC(=O)N=C5C=C4)CC3)CC2)C1)C(C)C` [Compound 83], the IC50 in assay [1] turned out to be 222 nM.
In the case of `COc1cc(N2CCC(CN3CCC4(CC3)CN(c3ncnnc3Oc3ccc(F)c5nn(C(C)C)cc35)C4)CC2)nnc1OC` [Compound 105], the IC50 in assay [1] came out at 483 nM.

Broadly, the IC50 is the point on the concentration scale where inhibition reaches its midpoint. As usually defined, the GI50 is the concentration that inhibits growth by half.
